We go through six molecules from patent US20050164306A1, “Methods for screening for a compound useful in the treatment or prevention of lymphocytic disorders, for inhibiting lymphocite activity and preventing or treating lymphocytic disorders” (priority 2002, published 2005).

By Ki is commonly meant the equilibrium dissociation constant of an inhibitor or competing ligand from its target.

Data set [1] relates to NTPDase. The data set is described as follows: NTPDase assay on intact human peripheral blood lymphocytes (PBL). The data set is classed as biochemical. On the procedure:
Human lymphocytes were obtained from peripheral venous blood of normal and healthy medication-free volunteers. Fresh blood collected in EDTA glass tubes was layered into Histopaque™-1077 (a solution of Ficoll™ and sodium diatrizoate adjusted to a density of 1.077, Sigma, USA) and centrifuged at 400 g for exactly 30 min, at room temperature. During centrifugation, erythrocytes and granulocytes were aggregated by Ficoll™ and rapidly sedimented, whereas lymphocytes remained at the plasma interface. Plasma (the upper layer) was carefully removed to prevent disturbance of the buffy coat. The latter fraction rich in lymphocytes was recovered with a pasteur pipette and washed twice with RPMI™ 1640 medium by centrifugation, for 10 min, at 250×g. The final pellet was suspended in fresh RPMI™ 1640 medium supplemented with 2 mM L-glutamine, 10% foetal bovine serum inactivated at 56° C. for 30 min, and antibiotics: penicillin […], streptomucin 100 ug/ml and amphotericin 2.5 ug/ml. Cells were counted with the hemacytometer. […] The cell preparation named PBL (for peripheral blood lymphocyte) was immediately used for NTPDase assays and for mitogenic responses to stimulators.
Prior to the assays, human normal lymphocytes as well as leukemic cell lines, were washed three times with phosphate-free saline in 95 mM NaCl, 1 mM CaCl2, 2 mM MgCl2 and 45 mM Tris —HCl buffer (pH 7.4). Enzyme assays were carried out at 37° C. in 1 ml of the following assay medium: 95 mM NaCl, 5 mM KCl, 1 mM CaCl2, 2 mM MgCl2, 5 mM glucose, 0.05% BSA, 5 mM tetramisole and 45 mM Tris-HCl (pH 7.5). The reaction was started by adding the substrate (200 uM of ATP or ADP) and stopped with 250 ul of the Malachite green reagent. Controls were run with the enzyme added after the Malachite green reagent. Where indicated, 10 mM sodium azide (NaN3) or 1 mM, 5 mM and 10 mM of BGO 136 were added directly to the assay mixture. Inorganic phosphate was estimated according to Baykov et al.^(1) and enzyme activity was either expressed as nmoles of Pi released/min/mg of protein which corresponds to mUnits^(2) or as nmoles Pi/min/10^6 cells. Where indicated, lymphoid cells were lysed by three freeze thaw cycles in saline buffer and protein was measured with the method of Bradford using bovine serum albumin as a standard (3).

Data set [2] relates to human peripheral blood lymphocytes (PBL). The data set is described as follows: Mitogen stimulation and proliferation assay (3H-thymidine uptake). It counts as cell-based. The settings on record: for lymphocytic activity including proliferation and humoral response (in words): normal T lymphocyte. As to the method:
A thymidine uptake assay was used to evaluate the effect of […] inhibitors on the proliferative activity of normal lymphocytes. Cell suspensions of fresh human peripheral blood lymphocytes (PBL) were resuspended in RPMITM 1640 medium supplemented with 10% foetal bovine serum at a concentration of 2×10^6/ml. Aliquots of […] were plated on a […] (96-well) and stimulated with 10 ug/ml of (Con-A) or 40 ug/ml of (LPSTM) at a final volume of 0.2 ml/well. ConATM and LPSTM were used to stimulate preferentially T cells and B cells, respectively. […] After an additional a 4 h incubation at 37° C., cells were collected with a cell harvester and ^3H thymidine incorporation was measured in triplicate samples by liquid scintillation counting.

The next data set deals with Jurkat cells. The data set is described as follows: Cell growth and proliferation of Jurkat cell lines. It counts as cell-based, human. The note with it: inhibitor added at day 0; cell counts on day 5. As to the method:
T cell Jurkat is an acute T cell leukemia obtained from the peripheral blood of human. It was purchassed from ATCC and was grown and maintained in RPMI™. 1640 medium containing 10% FBS, 2 mM L-glutamine adjusted to contain 1.5 g/L sodium bicarbonate, 4.5 g/L glucose, 10 mM HEPES and 1.0 mM sodium pyruvate. To evaluate the effect of the different inhibitors of NTPDases on the growth of Jurkat cells, BGO 136, erythrosin, 8 Bus ATP, AMP and β-γ-Me ATP were added in the RPMI™ 1640 medium in presence of cells at day=0. Cells counts and viability of cells were determined on day=5.

Data set [3] concerns mice. The data set is described as follows: Graft vs. host reaction, spleen weight after cell transplant (Bundick model). It counts as in vivo. The note with it: for splenomegaly: spleen weighed 21 days after injection of parents' spleen cells; for suppression %: suppression of splenomegaly, no treatment = 100, positive = 0. On the procedure:
Mice were injected their parents' spleen cells. 21 days later, their spleen was weighed. Activation of Th2 (T helper cells) cells. The treatment groups are cyclosporin, BGO, and AMP. […] The “No treatment group” is constituted of normal mice. The “positive” group is constituted of mice having undergone spleen tissue transplantation and having been injected with the carrier only (PBS™) without inhibitor. […] The spleen of all mice was then removed and weighed. The weigh of treated mice was then compared with that of the “No treatment” mice.

The subject of data set [4] is mice. The data set is described as follows: In vivo antibody production assay (humoral response to BSA, ELISA). As to the method: Immunity mice were primed with antigen by an intraperitoneal injection of BSA as a T-dependent antigen. Briefly, BSA was resuspended in PBS (pH 7.2) and emulsified in the same volume of complete Freund's adjuvant (CFA). 30 ug BSA in […] PBS was given to each mouse. Four groups of ten mice were immunized. • Group 1: mice were injected i.p. with BSA alone with emulsified in (CFA) Group: Ag. • Group 2: mice were injected i.p. with BSA plus BGO 136 (400 mM) in […] PBS, emulsified in (CFA) or erythrosin B (0.25 g/Kg) • Group 3: mice were injected i.p. with BSA plus BGO 136 (800 mM) in […] PBS, emulsified in (CFA) or erythrosin B (0.5 g/Kg) • Group 4: mice were treated with BSA in presence of the inhibitor emulsified in (CFA). These mice received various i.p. doses of BGO 136 400 mM in 0.1 ml of normal PBS or erythrosin B 0.25 g/Kg, 2 doses/week are given as a maintenance dose. (group named DM=maintenance dose)
These initial immunizations (i.p.) were followed by two subsequent immunizations with emulsions of BSA alone or in presence of BGO136 400 mM or 800 mM, in incomplete Freund's adjuvant. Five days after each immunization, blood was collected from each animal, sera was analysed by an ELISA assay.
Flat-bottomed microtiter plate were coated with BSA (5 ug/ml) in NaHCO3/Na2CO3 50 mM (pH 9.6) at 37° C. for 2 h. Plates were washed three times with (PBS buffer, pH 7.4, 0.5 ml/L Tween-20) and then blocked with 400 ul of milk per well overnight, at 4° C. Diluted sera specimens were added (100 ul/well) and incubated for 2 h at 37° C. After thorough washing, wells were incubated with 100 ul of goat-anti-mouse IgG conjugated with peroxydase for 2 h at 37° C. followed by several washes. TMB substrate solution (100 ul/well), (42 mM TMB in DMSO, 0.1 M citric acid, Na2HPO4 0.2 M and H2O2 30%) was added. Color development was allowed to proceed for approximately 15 to 30 min, at room temperature. Reaction was terminated by adding 30 ul of 4N H2SO4. Optical density was read at 450 nm.

The target in data set [5] is NTPDase. The settings on record: ATP and ADP as substrate; read-out: Ki (mixed type of inhibition); cited from earlier work.

Entries after “also recorded” stand apart in the source; their conditions may differ. Read-outs that look alike come from different tables or passages of the source.

Turning to `Nc1ncnc2c1ncn2[C@@H]1O[C@H](COP(=O)(O)OP(=O)(O)CP(=O)(O)O)[C@@H](O)[C@H]1O` [β-γ-Me ATP, beta-gamma methylene ATP], in the data set on NTPDase [1], the “effect on NTPDase activity (in words)” value is “inhibited in a dose-dependent manner; also recorded: decrease the NTPDase activity”. Further, the “proliferation induced by ConA (in words)” value in data set [2] (ConA-stimulated PBL) was “reduced cell proliferation”. In data set [2], the “lymphocytic activity including proliferation and humoral response (in words)” value was “decrease”. Further, in the data set on Jurkat cells, the “Jurkat cell proliferation (in words)” value is “less pronounced but significant effect”.
Take `Nc1ncnc2c1ncn2[C@@H]1O[C@H](COP(=O)(O)O)[C@@H](O)[C@H]1O` [AMP, adenosine 5′-monophosphate]: in the data set on Jurkat cells, the “Jurkat cell proliferation (in words)” value is on record as “marked reduction of cell proliferation”. In the data set with mice [3], the splenomegaly is reported as 6.7 ± 0.82 mg/g of b. weight and the suppression % is given as 8%.
For the molecule `O.O=C([O-])c1ccccc1-c1c2cc(I)c(=O)c(I)c-2oc2c(I)c([O-])c(I)cc12.[Na+].[Na+]` [erythrosin B], in the data set with NTPDase [1], the “effect on NTPDase activity (in words)” value is “dose-dependent inhibition; also recorded: decrease the NTPDase activity”. In addition, the “proliferation induced by ConA (in words)” value in data set [2] (ConA-stimulated PBL) is on record as “dose-dependent inhibition”. In data set [2], the “lymphocytic activity including proliferation and humoral response (in words)” value was “decrease”. Besides, in the data set on mice [4] (especially with multiple injections (group DM)), the “levels of antibodies to albumin (in words)” value is listed as “significant decrease”. Besides, in the data set with Jurkat cells, the “Jurkat cell proliferation (in words)” value is listed as “marked reduction of cell proliferation”.
Regarding `O=S(=O)(O)c1ccc2c(O)cc(S(=O)(=O)O)cc2c1` [BGO 136, 1-hydroxynaphtalene-3,6 disulfonic acid], in the data set on NTPDase [1], the “effect on NTPDase activity (in words)” value is on record as “decrease the NTPDase activity; also recorded: dose-dependent inhibition”. Further, in the data set with NTPDase [1] (5 mM), the “inhibition of ATPase and ADPase activities” value came to 40%. In the data set with NTPDase [1] (10 mM), the “inhibition of ATPase and ADPase activities” value is at least 50%. Also, the “proliferation induced by ConA (in words)” value in data set [2] (ConA-stimulated PBL) was “inhibited in a dose-dependent manner”. For the same molecule, the “proliferation induced by ConA, percent of the positive control values” in data set [2] (ConA-stimulated PBL, 10 mM) is given as “about 10%”. The “inhibition of LPS-induced proliferation (in words)” value in data set [2] (LPS-stimulated PBL) is on record as “much less pronounced”. The “lymphocytic activity including proliferation and humoral response (in words)” value in data set [2] is listed as “decrease”. Further, in data set [2] (unstimulated PBL), the “proliferation of non-activated lymphocytes (3H-Thymidine incorporation in DNA)” value is on record as “did not affect”. Also, the “tolerance: toxic or allergic reactions” value in the data set with mice [4] (during administration (two months)) is recorded as “No toxic or allergic reactions were observed”. For the same molecule, the “effect on levels of albumin antibodies (in words)” value in the data set with mice [4] (repeated injections (group DM) versus single dose) is listed as “even more efficient”. For the same molecule, the “reduction of levels of albumin antibodies” value with mice [4] (single dose 800 mM i.p.) was at most 50%. Moreover, the “Jurkat cell proliferation (in words)” value with Jurkat cells is “marked reduction of cell proliferation”. In addition, in the data set on mice [3], the “efficiency in preventing spleen growth following transplantation, versus cyclosporine” value is on record as “more efficient than cyclosporine”; the splenomegaly is listed as 4.3 ± 0.29 mg/g of b. weight; the suppression % is 56%. For the same molecule, in the data set with mice [3] (ANOVA), the “transplanted spleens versus positive control mice (in words)” value is “significantly smaller”. In addition, the Ki at NTPDase [5] is 380 µM.
In the case of `CCCCSc1nc2c(N)ncnc2n1C1OC(COP(=O)(O)OP(=O)(O)OP(=O)(O)O)C(O)C1O` (stereo not drawn) [8 BUS-ATP], the “effect on NTPDase activity (in words)” value in the data set with NTPDase [1] was “decrease the NTPDase activity”. In data set [2] (ConA-stimulated PBL), the “proliferation induced by ConA (in words)” value is reported as “reduced cell proliferation”. In addition, in data set [2], the “lymphocytic activity including proliferation and humoral response (in words)” value is “decrease”. Besides, in the data set with Jurkat cells, the “Jurkat cell proliferation (in words)” value was “marked reduction of cell proliferation”.
As for `CCCCSc1nc2c(N)ncnc2n1[C@@H]1O[C@H](COP(=O)(O)O)C(O)[C@@H]1O` (stereo partly drawn) [8 BUS-AMP], the results for the “effect on NTPDase activity (in words)” value with NTPDase [1] and in the data set on NTPDase [1] (listed as 8 Bus AMP) were “pronounced dose-dependent inhibition” and “decrease the NTPDase activity”, respectively. In addition, the “lymphocytic activity including proliferation and humoral response (in words)” value in data set [2] is listed as “decrease”.
